Results reported in patent USRE36374E, “1,2,3-triazole and tetrazole substituted piperidine or tetrahydropyridine compounds useful as acetylcholine agonists” (priority 1987, dated 1999).
Structures can show the parent of a compound that is named as a salt.

Tests used:
[1] = background; cited from earlier work
AcCh receptors = conditions: background; cited from earlier work
[2] = peripheral administration; background; cited from earlier work
[3] = peripheral administration; background; cited from earlier work; remark: listed apart in the source
[4] = biological target: central cholinergic receptors; experiment: 3H-oxotremorine-M (Oxo-M) displacement from rat brain homogenates; type: binding; conditions: displacement of 3H-oxotremorine-M, pH 7.4, 40 min, 30° C
Procedure: (§1) Affinity to central cholinergic receptors in vitro was measured as the ability of the compounds to displace ^3 H-oxotremorine-M (Oxo-M) from rat brain homogenates, while affinity to central muscarinic M-1-receptors in vitro was measured as the ability of the compounds to displace ^3 H-pirenzepin (Pz) from rat brain homogenates.
^3 H-oxotremorine M binding
was performed essentially as described by Birdsdall et al., 1980. Briefly, rat brains were homogenized in 100 vol (w/v) 10 mM Na,K-phosphate buffer (pH 7.4) and aliquots incubated with ^3 H-oxotremorine M (84.9 Ci/m-mol, NEN) alone or in the presence of test compound in a total volume of 1.5 ml for 40 min. at 30° C. The reaction was stopped by adding 5 ml cold buffer and filtered through Whatman GF/B filters soaked previously in 0.1% polyethylenimin (Sigma) for minimum 30 min. The filters were washed once with the same volume of buffer, transferred to scintillation vials and extracted in scintillation fluid (Pico-fluor 15, Packard) for at least two hours before counted in a liquid scintillation spectrometer (Beckman LS 1800). Non-specific binding was estimated at 10 μM atropine and all estimations made in triplicate. At least two displacement curves were made for each compound tested.
Birdsdall N. J. M., Hulme E. C., and Burgen A. S. V. (1980). "The Character of Muscarinic Receptors in Different Regions of the Rat Brain". Proc. Roy. […] London (Series B) 207, 1.

[5] = biological target: T1, central muscarinic M-1-receptors (Rattus norvegicus, UniProt P08482); experiment: 3H-pirenzepine (Pz) displacement from rat brain homogenates; type: binding; conditions: displacement of 1.0 nM 3H-pirenzepine, rat brain homogenates, 60 min, 25° C; read-out: Pz, IC50
T1 sequence (P08482 1-460): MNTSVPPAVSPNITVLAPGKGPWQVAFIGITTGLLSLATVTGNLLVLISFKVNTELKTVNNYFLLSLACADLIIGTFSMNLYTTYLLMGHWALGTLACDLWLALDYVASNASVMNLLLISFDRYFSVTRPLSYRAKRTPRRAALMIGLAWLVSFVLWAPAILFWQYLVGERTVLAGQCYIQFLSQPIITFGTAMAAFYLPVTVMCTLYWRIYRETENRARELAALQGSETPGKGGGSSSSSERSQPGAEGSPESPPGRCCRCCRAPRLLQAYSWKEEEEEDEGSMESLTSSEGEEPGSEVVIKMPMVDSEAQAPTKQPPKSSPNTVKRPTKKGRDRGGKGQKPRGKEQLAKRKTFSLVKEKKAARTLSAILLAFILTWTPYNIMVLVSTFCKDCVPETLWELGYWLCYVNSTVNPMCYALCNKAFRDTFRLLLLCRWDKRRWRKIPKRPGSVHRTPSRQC
Procedure: as §1
was performed essentially as described by Watson et al., 1983, the conditions being very much the same as for ^3 H-oxotremorine binding, except that aliquots were incubated with 1.0 nM ^3 H-pirenzepine for 60 min. at 25° C. and that the reaction was stopped by direct filtration followed by 3 washes with 4 ml buffer.
Watson, M., Yamamura, H. I., and Roeske, W. R. (1983). "A unique regulatory profile and regional distribution of ^3 H-pirenzepin binding in the rat provide evidence for distinct M1 and M2 muscarinic receptor subtypes". Life Sci. 32 (1983) 3001-3011.

Row | IC50 [4] [µM] | IC50 [5] [µM] | SMILES | hydrolysis of ester group in vivo [1] | AcCh agonist activity (AcCh receptors) | central effects [2] | penetration of blood-brain barrier [3]
1 |  |  | COC(=O)C1=CCCN(C)C1 [Arecoline, methyl 1-methyl-1,2,5,6-tetrahydropyridine-3-carboxylate] | very rapidly hydrolyzed in vivo | AcCh agonist | very weak and frequently negligible central effects | capable of penetrating the BBB
2 | 0.71 | 0.16 | Cc1nc(C2=CCCN(C)C2)nn1C [Compound 63, 1,5-Dimethyl-3-(1-methyl-1,2,5,6-tetraydro-3-pyridyl)-1,2,4-triazole, fumarate] |  |  |  | 
3 | 0.0011 | 0.0055 | CN1CCC=C(c2cnn(C)n2)C1 [Compound 70, 2-Methyl-4-(1-methyl-1,2,5,6-tetrahydro-3-pyridyl)-1,2,3-triazole, 1.5 fumarate] |  |  |  | 
4 | 0.12 | 0.13 | CC(C)n1nnc(C2=CCCN(C)C2)n1 [Compound 16, 2-Isopropyl-5-(1-methyl-1,2,5,6-tetrahydro-3-pyridyl)-2H-tetrazole, fumarate] |  |  |  | 
5 | 0.032 | 1.5 | CCn1nnc(C2=CCCNC2)n1 [Compound 19, 2-Ethyl-5-(1,2,5,6-tetraydro-3-pyridyl)-2H-tetrazole, hydrobromide] |  |  |  | 
